Assay results published in patent US20200375996A1, “METHOD OF TREATING NEURODEGENERATIVE DISORDERS BY RESCUING ALPHA-SYNUCLEIN TOXICITY” (D.E. Shaw Research, LLC, priority 2015, published 2020).

Experiments:
[1] = system: Sna3-GFP; assay: Sna3-GFP trafficking to the vacuole (Western blot, GFP cleavage); type: cell-based, yeast; details: for Sna3-GFP trafficking to the vacuole (in words): galactose 5 hours, FIGS. 15B-15F; for ratio of Sna3-GFP to free GFP: 10 μM, FIGS. 16A-16F, within the compound series
Method: Log phase CsmRaf cultures of WT tagged Sna3-GFP cells were shifted to galactose for 5 hours in the presence or absence of the compounds. Cell pellets were lysed in SDS-loading dye and Sna3-GFP cleavage monitored by Western blotting with an anti-GFP antibody. Log phase CsmRaf cultures of WT or α-syn yeast were shifted to galactose for 5 hours in the presence or absence of the compounds at which point they were then prepared for Western blot analysis. FIGS. 15B-15F show Western blot analyses of Sna3-GFP for various compounds.
Ratio of the intact Sna3-GFP to cleaved GFP was calculated for each of the conditions as a readout for efficiency of trafficking of the Sna3-GFP molecule to the vacuole. Polyubiquitination of Sna3-GFP was used as a readout for the intermediate step at the multivesicular body. Image Studio software was used to determine the intensities of the bands, based on linear interpolation of the mean signal intensities from each of the areas of interest and ratios were subsequently calculated in Microsoft Excel and plotted according to the compound series as shown in FIGS. 16A-16F. In the ‘32’ series of analogs, the ratio of Sna3-GFP to free GFP varied among the analogs, with DES-2179 having the lowest ratio of Sna3-GFP to free GFP and DES-2866 having the highest ratio (FIG. 16A). In the ‘91’ series of analogs, the ratio of Sna3-GFP to free GFP varied among the analogs, but less so than for the ‘32’ series (FIG. 16B). In the ‘4117’ series of analogs, the ratio of Sna3-GFP to free GFP was lowest for DES-5212 (FIG. 16C). […] In the ‘28’ series of analogs, DES-2817 had the lowest ratio of Sna3-GFP to free GFP (FIG. 16F). The other compounds in the ‘28’ series had ratios between ˜0.5 and 1.0 (FIG. 16F). In the ‘37’ series of analogs, the ratio of Sna3-GFP to free GFP was greatest for DES-2926 (FIG. 16F).

[2] = system: Carboxypeptidase Y (CPY); assay: Western blot of Carboxypeptidase Y (CPY) trafficking; type: cell-based, yeast
Method: (§1) Protein analysis was performed in NoTox and HiTox strains with the compound treatment at indicated concentrations. Log phase CSM/2% raffinose cultures were induced with 2% galactose for 5 hours with DMSO or the compounds. Cultures were normalized to cell density and cell pellets prepared for SDS-PAGE. Cell pellets were boiled in SDS-loading dye for 15′, centrifuged, and resolved by 4-12% SDS-PAGE. CPY western blots were performed using culture conditions as described above. An anti-Cpy antibody (Invitrogen, A6428) was used at 1:5,000. Post-ER:ER ratios were quantitated using an IRDye800 secondary antibody (Li-Cor Odyssey, Rockland Immunochemicals) and scanned with the Li-Cor Odyssey imaging system. Significance was determined using a one-way ANOVA and Tukey's test of significance. From the same gel, total protein was detected by coomassie staining. Both blots and coomassie-stained gels were scanned using the Li-Cor Odyssey imaging system and quantitated. Significance was determined using a one-way ANOVA with Tukey's test of significance.

[3] = system: aSyn-expressing yeast cells; assay: Morphological analysis of aSyn-expressing yeast cells; type: cell-based; details: 10 uM, galactose induction five hours, FIG. 10
Method: Raffinose cultures of α-syn expressing yeast cells were grown up to the logarithmic phase in raffinose. Cultures were induced with galactose for five hours in the presence or absence of the indication concentration of the compounds. In the present example, the identified compounds were present at a concentration of 10 uM. Cells were centrifuged, media discarded, and then fixed with 4% paraformaldehyde in 1×PBS for 1 hr. The fixed culture was centrifuged, and the pellet resuspended in 0.4% paraformaldehyde in 1×PBS and kept at 4° C.

[4] = target: T1, Rsp5 (Saccharomyces cerevisiae, UniProt P39940); assay: Back-Scattering Interferometry (BSI) binding to recombinant Rsp5; details: for Kd: 100 nM Rsp5, one-site saturation binding model, read-out: dissociation constant (Kd) for binding to Rsp5
T1 sequence (P39940 431-809 limits assumed): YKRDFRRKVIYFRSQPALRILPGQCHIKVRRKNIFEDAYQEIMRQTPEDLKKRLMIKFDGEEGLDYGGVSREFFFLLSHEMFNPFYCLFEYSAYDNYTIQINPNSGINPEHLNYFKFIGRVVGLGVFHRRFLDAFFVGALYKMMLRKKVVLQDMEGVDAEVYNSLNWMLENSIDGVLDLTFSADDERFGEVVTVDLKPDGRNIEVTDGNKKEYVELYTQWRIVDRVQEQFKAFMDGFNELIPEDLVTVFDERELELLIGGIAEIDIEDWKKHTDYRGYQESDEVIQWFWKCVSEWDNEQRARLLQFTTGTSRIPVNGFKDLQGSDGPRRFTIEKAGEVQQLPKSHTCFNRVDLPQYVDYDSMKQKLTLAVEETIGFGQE
Method: Sample Preparation of Rsp5 Target: Rsp5 was supplied in 15 μL aliquots of 100 μM (25 mM HEPES pH 7.5, 200 mM NaCl, 5 mM DTT) by St. Jude Research Hospital (Memphis, Tenn.) and was stored at −80° C. Immediately prior to assays fresh aliquots were thawed and diluted in 25 mM HEPES, pH 7.5, 200 mM NaCl, 1 mM DTT, 0.005% pluronic acid and 1% DMSO. The final Rsp5 concentration in the binding assay was 100 nM.
Sample Preparation of compounds (ligands): The compounds were received as solids and reconstituted to either 40 or 20 mM in 100% DMSO and stored at −80° C. in single use aliquots. The final concentration of each ligand in an assay was 50 μM with a 2× serial dilution to create a 12-point curve.
The assay buffer was 25 mM HEPES, pH 7.5, 200 mM NaCl, 1 mM DTT, 0.005% pluronic acid, 1% DMSO. The assay was run in Eppendorf 96-well PCR microplates. 55 μL of either Rsp5 or buffer (as control) were added to a each well. To these wells were added 55 μL of the compound dilution. A reference channel containing only buffer was setup as well for thermal compensation during assay measurements. The plates were heat sealed with foil and the assay plates were allowed to incubate at room temperature for 2 hours. Wells were pierced individually prior to sample injection and measurement of BSI signal (each well analyzed in duplicate). The assays were run using a glass microfluidic chip with a proprietary surface treatment on TruBind™ 100 system.
The BSI signal was expressed as the magnitude of the spatial shift of the fringe pattern on a CMOS camera, measured in milliradians. The control signal was subtracted from assay signal for each compound dilution point. The resulting values were re-zeroed and analyzed with the GraphPad Prism program. The dissociation constant (Kd) was derived from non-linear least-squares fitting of the data using the one-site saturation binding model. The goodness of fit was judged by the calculated R^2 value. The difference and control curves for at least two successful assays were averaged. The resulting average difference curve was used to calculate the reported Kd value for each compound.

[5] = system: K63 linkages in iPS derived human neurons; assay: K63-Ub linkages in human iPS derived neuronal cultures (immunoblot); type: cell-based
Method: Human HEK-293 or neuronal cells treated with the appropriate compounds, were washed twice with ice cold PBS and then 0.5 ml of Lysis buffer was added and cells were scraped off the 10 cm dish (1 ml for 15 cm).
Lysis buffer is 50 mM Tris/HCl pH 7.5, 1 mM EGTA, 1 mM EDTA, 0.5 or 1% (v/v) NP-40, 1 mM sodium orthovanadate, 50 mM NaF, 5 mM sodium pyrophosphate, 0.27 M sucrose, 10 mM sodium 2-glycerophosphate, 0.2 mM phenylmethylsulphonyl fluoride, 1 mM benzamidine, plus 100 mM iodoacetamide added fresh prior to lysis (weight powder, don't use a frozen stock solution) to inactivate deubiquitylase activities and add also pepstatin/aprotinin to inhibit proteases. Cell extracts were sonicated twice for 15 seconds each time and clarified by centrifugation at 14000 g for 15 min at 4° C. Supernatants were collected and filtered using a 0.45 uM MiniSart/Syringe. Next, protein concentrations were determined by Bradford procedure.
The avidity based K63 linkage sensor protein was based on Sims et. al, 2012. Briefly, avidity based K63 sensor Halo-fusion protein was expressed in an E. coli expression vector and covalently bound to Halo-tag beads [Magne® HaloTag® Beads, 20% Slurry; Cat #G7281]. […] After incubation, the beads were washed three times with 1 ml of Lysis buffer containing 500 mM NaCl and once with 0.5 ml of 10 mM Tris/HCl pH 8.0. […] The eluate is heated at 75° C. for 5 min and analysed by immuno-blotting using an anti-K63 linkage specific antibody (http://www.abcam.com/ubiquitin-linkage-specific-k63-epr8590-448-antibody-ab179434.html).
Pure neuronal cultures derived from human iPS cells were treated with DMSO, DES-2877, DES-4114 and #32 at 5 μM for 12 hours. […] Ubiquitylation site identification by mass spectrometry was performed as described Kim et al., (Systematic and quantitative assessment of the ubiquitin-modified proteome. Mol Cell. 2011; 44:325-340). and Sarraf et al., (Landscape of the PARKIN-dependent ubiquitylome in response to mitochondrial depolarization. Nature. 2013; 496:372-376).

[6] = system: α-synuclein-expressing yeast; assay: α-synuclein toxicity rescue in yeast (growth, OD600); type: cell-based; details: for rescue of aSyn toxicity in yeast (in words): FIGS. 8A-8B
Method: Yeast Strains and culturing: Yeast strains expressing alpha-synuclein have been described in Cooper at. al, 2006. (Cooper A A, et al. Alpha-synuclein blocks ER-Golgi traffic and Rab1 rescues neuron loss in Parkinson's models. Science. 2006 Jul. 21; 313:324) Strains express multiple copies of alpha-synculein for galactose-inducible expression. […] Yeast were cultured in complete synthetic media (CSM) and an appropriate dropout (lacking histidine or uracil) to maintain plasmids if required. For galactose-induction experiments, overnight cultures were grown in CSM/2% glucose to saturation and diluted 1:20 into CSM/2% raffinose for ˜2 generations. Cultures were then diluted into CSM/2% galactose at an optimum OD600 for the experiment (see ‘Growth assays’).
Yeast Growth assays: Starting cultures for all dose-response assays were based on strains initially constructed in the lab to maintain homogeneity across experiments. All growth assays were carried out in 384 well format. Source plates were assembled in 96 well plates using multichannel pipettes to dilute rows in 1.6-fold serial dilutions of CSMGal. To these dilution series containing 2× final concentration of compound, 2×OD600 culture (in CSMGal) was dispensed with a multichannel pipette to achieve a final drug/culture mix with the desired OD600 and drug concentration. For WT yeast, the final starting OD600 was 0.01. For α-syn, the final starting OD600 was 0.02. Drug concentration ranges varied depending on efficacy, growth inhibition, and solubility in media. A Tecan EvoFreedom liquid handling robot was then used to transfer culture from 96 to 384 well format with each well being represented four times. Final well volume was 35 μL. Plates were then incubated in humidified containers at 30° C. for either 24 or 40 hours. Plates were then read with a Tecan Saphire plate reader at OD600.
Raw OD600 values were transformed to “Relative Growth” in WT cells or “% Maximum Rescue” in α-syn experiments. In WT cells, the well background was subtracted and all values were then normalized to 100% for the untreated condition. In α-syn rescue experiments, the well background was subtracted and the maximum rescue in the particular experiment was normalized to 100%.

[7] = system: Sna3-GFP; assay: Immunoblot analysis of Sna3-GFP polyubiquitination in WT and α-syn cells; type: cell-based, yeast; details: FIG. 11B
Method: as §1
In WT Sna3-GFP cells, log phase CSMRaf cultures were shifted to galactose for 5 hours in the presence or absence of the compounds. Cell pellets were lysed in SDS-loading dye and Sna3-GFP cleavage monitored by Western blotting with an anti-GFP antibody. […]

## Cc1ccc(C2CC(C(F)(F)F)n3nc(C(=O)N4CCN(c5ccccc5)CC4)cc3N2)cc1 (stereo not drawn) [DES-2960]
[1]
  Sna3-GFP trafficking to the vacuole (in words): promotes Sna3-GFP trafficking to the vacuole better than DES-2866 and DES-2928

## Cc1ccc(C)c(Nc2nc(N/N=C/c3ccncc3)nc(N3CCOCC3)n2)c1 [DES-5204]
[1]
  Sna3-GFP trafficking to the vacuole (in words): promote Sna3-GFP trafficking to the vacuole

## COc1cc(Cl)cc(/C=N/Nc2nc(Nc3cc(C)ccc3C)nc(N3CCOCC3)n2)c1O [DES-2877]
[2]; FIG. 11D
  accumulation of CPY trafficking intermediates en route to the vacuole: increase
[3]
  morphology: vesicular intermediates in yeast cells: accumulation of vesicular intermediates
[4]
  Kd: 1700 ± 400 nM
[5]; 5 μM for 12 hours, FIG. 13A
  K63 linkages in iPS derived human neurons: modest increase
[6]
  rescue of aSyn toxicity in yeast (in words): most effective
[7]
  polyubiquitinated Sna3-GFP: increase

## COc1cc(/C=N/Nc2nc(Nc3ccccc3)nc(N3CCOCC3)n2)ccc1OCC#N [DES-3001]
[4]
  binding to Rsp5 (in words): did not show binding
[1]
  Sna3-GFP trafficking to the vacuole (in words): promote Sna3-GFP trafficking to the vacuole

## O=C(c1ccc(COc2ccc(OC(F)(F)F)cc2)o1)N1CCC(O)(c2ccc(Cl)cc2)CC1 [DES-2854]
[1]
  Sna3-GFP trafficking to the vacuole (in words): promote Sna3-GFP trafficking to the vacuole

## O=C(Nc1cccc(Cl)c1)c1coc(CN2CCN(c3ccc(F)cc3)CC2)n1 [DES-3035]
[1]
  Sna3-GFP trafficking to the vacuole (in words): promote Sna3-GFP trafficking to the vacuole

## COc1cc(Cl)cc(/C=N/Nc2nc(Nc3ccc(C)c(Cl)c3)nc(N3CCOCC3)n2)c1O [DES-2866]
[1]
  ratio of Sna3-GFP to free GFP: highest ratio
[6]
  rescue of aSyn toxicity in yeast (in words): also effective

## O=C(c1ccc(COc2ccc(OC(F)(F)F)cc2)o1)N1CCN(c2ccccc2)CC1 [DES-2184]
[6]
  rescue of aSyn toxicity in yeast (in words): also effective

## C(=N\Nc1cc(N2CCOCC2)nc(Nc2ccccc2)n1)/c1ccncc1 [DES-5212]
[4]
  Kd: 680 ± 180 nM
[1]
  ratio of Sna3-GFP to free GFP: lowest
  Sna3-GFP trafficking to the vacuole (in words): promote Sna3-GFP trafficking to the vacuole

## COc1cc(/C=N/Nc2nc(Nc3cccc(C(F)(F)F)c3)nc(N3CCOCC3)n2)ccc1O [DES-2179]
[2]; FIG. 1C
  Cpy trafficking defect (block in vesicle trafficking): ameliorate this defect
[5]; Nedd4-dependent manner, FIGS. 3A-3C
  K63-linked ubiquitination of proteins: promote K63-linked ubiquitination of proteins
[1]
  ratio of Sna3-GFP to free GFP: lowest ratio
  Sna3-GFP trafficking to the vacuole (in words): promotes Sna3-GFP trafficking to the vacuole
[6]; dose-response, FIG. 1B, above the peak growth slows
  concentration at which efficacy of rescue peaks: around 10 μM

## CCCCc1ccc2nc(-c3ccc(-c4cc(Cl)cc(Cl)c4)o3)cc(C(=O)O)c2c1 [DES-2817]
[1]
  ratio of Sna3-GFP to free GFP: lowest ratio
  Sna3-GFP trafficking to the vacuole (in words): promote Sna3-GFP trafficking to the vacuole

## O=C(c1ccc(COc2ccc3ccccc3c2)o1)N1CCN(c2ncccn2)CC1 [DES-2926]
[1]
  ratio of Sna3-GFP to free GFP: greatest

## C(=N\Nc1nc(Nc2ccccc2)nc(N2CCOCC2)n1)/c1ccncc1 [DES-4117]
[4]
  binding to Rsp5 (in words): did not show binding
